# Tested on: RSV A2
# Assay: Virus titre in air-liquid interface (ALI) cultured bronchial epithelial cells (plaque assay)
# Assay type: cell-based, human respiratory syncytial virus
# Conditions: for Effect on RSV titre (in words): early intervention
# Protocol: Assessment of Virus Titre in Air-liquid Interface (ALI) Cultured Bronchial Epithelial Cells
# ALI cultured human bronchial epithelial cells were sourced from Epithelix Sarl (Geneva, Switzerland) and maintained by changing the basal media every 3-4 days, whilst the apical surface was washed once weekly with PBS. On Day 0, the apical surface of each well was washed once with sterile PBS (300 μL) and the inserts were transferred to new 24-well plates containing fresh MucilAir culture medium (780 μL; EP04MM). RSV A2 (50 μL; diluted in MucilAir culture medium to give a final MOI of 0.01) was added to cells for one hr (37° C./5% CO2). For the purposes of standardizing MOI calculations, each MucilAir insert was estimated to contain 2×10^5 apical facing cells per well. Virus inoculum was removed with a pipette and inserts were washed twice with sterile PBS (300 μL).
# Sampling was conducted by adding sterile PBS (300 μL) to the apical surface of each well for 5 min. The apical sample was then removed and transferred to tubes containing 50% sucrose dissolved in PBS (100 μL) before being stored at −80° C. This harvesting procedure was repeated daily beginning on day 0 and concluding on day 7.
# ALI cultures were dosed apically with test compound on days 0-7 for “early intervention” protocols, or days 3-7 for “late intervention” protocols. The test compound (50 μL in 0.5% DMSO/PBS) was added to the apical surface and incubated (37° C./5% CO2) for 1 hr before being removed. Vehicle treatments (0.5% DMSO/PBS) were performed on the corresponding apical surfaces to ensure each well received the same number of manipulations. On day 5, the basal media was removed from each well and replenished with fresh MucilAir culture media as a necessary maintenance step for ALI culture cells.
# Virus titre was quantified by plaque assay. HEp2 cells were grown in 24-well plates (Corning) for 48 hr prior to infection in DMEM containing 10% FBS until they attained 100% confluency. Collected samples were thawed at RT and ten-fold serial dilutions were prepared in serum-free DMEM. The growth medium from HEp2 cells was aspirated and replaced with 300 μL of serially diluted virus collections and left to infect at 37° C./5% CO2 for 4 hr. The infectious media was aspirated and replaced with Plaque Assay Overlay (500 μL; 1% methylcellulose in MEM, 2% FBS, 1% Pen Strep, 0.5 μg/mL amphotericin B), and left for 7 days at 37° C./5% CO2. Cells were fixed with ice-cold methanol for 10 min and blocked with 5% powdered milk (Marvel) in 0.05% PBS-tween (‘blocking buffer’) for 1 hr at RT. Anti-RSV F-protein antibody (2F7; Abcam: ab43812) was diluted to a 1:100 concentration in blocking buffer and added to cells for 1 hr at RT with shaking. Cells were washed using PBS and incubated with the secondary antibody (HRP conjugated goat anti-mouse secondary antibody (Dako P044701-2) diluted in 1:400 with blocking buffer) for 1 hr at RT with shaking. The secondary antibody solution was removed and cells were washed with PBS before the metal-enhanced development substrate DAB was prepared in ultra-pure water (according to manufacturer's instructions). Each well received 300 μL of development substrate (sigmaFAST D0426) until plaques were visible. Plaques were counted by eye and confirmed using light microscopy, allowing the calculation of plaque forming units per mL.
smiles,measurement,setting,value
"Cc1cnc(N2CC3(CCOCC3)C2)c(C(=O)Nc2ccc(C(=O)N3CCc4cc(C(=O)Nc5c(C)cccc5F)sc4-c4ccccc43)cc2)c1 [Example 5, N-(2-Fluoro-6-methylphenyl)-6-(4-(5-methyl-2-(7-oxa-2-azaspiro[3.5]nonan-2-yl)nicotinamido)benzoyl)-5,6-dihydro-4H-benzo[b]thieno[2,3-d]azepine-2-carboxamide]","Virus titre in apical wash, geometric mean ± SD","early intervention (days 0-7), 0.004 mg/mL, day 0",0.0 ± 0.0 log PFU/mL
same,"Virus titre in apical wash, geometric mean ± SD","early intervention (days 0-7), 0.004 mg/mL, day 1",0.61 ± 0.86 log PFU/mL
same,"Virus titre in apical wash, geometric mean ± SD","early intervention (days 0-7), 0.004 mg/mL, day 2",3.1 ± 0.22 log PFU/mL
same,"Virus titre in apical wash, geometric mean ± SD","early intervention (days 0-7), 0.004 mg/mL, day 3",3.9 ± 0.18 log PFU/mL
same,"Virus titre in apical wash, geometric mean ± SD","early intervention (days 0-7), 0.004 mg/mL, day 4",4.1 ± 0.16 log PFU/mL
same,"Virus titre in apical wash, geometric mean ± SD","early intervention (days 0-7), 0.004 mg/mL, day 5",4.2 ± 0.12 log PFU/mL
same,"Virus titre in apical wash, geometric mean ± SD","early intervention (days 0-7), 0.004 mg/mL, day 6",3.2 ± 0.26 log PFU/mL
same,"Virus titre in apical wash, geometric mean ± SD","early intervention (days 0-7), 0.004 mg/mL, day 7",2.8 ± 0.43 log PFU/mL
same,"Virus titre in apical wash, geometric mean ± SD","early intervention (days 0-7), 0.02 mg/mL, day 0",0.0 ± 0.0 log PFU/mL
same,"Virus titre in apical wash, geometric mean ± SD","early intervention (days 0-7), 0.02 mg/mL, day 1",0.0 ± 0.0 log PFU/mL
same,"Virus titre in apical wash, geometric mean ± SD","early intervention (days 0-7), 0.02 mg/mL, day 2",0.0 ± 0.0 log PFU/mL
same,"Virus titre in apical wash, geometric mean ± SD","early intervention (days 0-7), 0.02 mg/mL, day 3",0.0 ± 0.0 log PFU/mL
same,"Virus titre in apical wash, geometric mean ± SD","early intervention (days 0-7), 0.02 mg/mL, day 4",1.4 ± 1.1 log PFU/mL
same,"Virus titre in apical wash, geometric mean ± SD","early intervention (days 0-7), 0.02 mg/mL, day 5",1.9 ± 1.4 log PFU/mL
same,"Virus titre in apical wash, geometric mean ± SD","early intervention (days 0-7), 0.02 mg/mL, day 6",0.0 ± 0.0 log PFU/mL
same,"Virus titre in apical wash, geometric mean ± SD","early intervention (days 0-7), 0.02 mg/mL, day 7",0.0 ± 0.0 log PFU/mL
same,"Virus titre in apical wash, geometric mean ± SD","early intervention (days 0-7), 0.1 mg/mL, day 0",0.0 ± 0.0 log PFU/mL
same,"Virus titre in apical wash, geometric mean ± SD","early intervention (days 0-7), 0.1 mg/mL, day 1",0.0 ± 0.0 log PFU/mL
same,"Virus titre in apical wash, geometric mean ± SD","early intervention (days 0-7), 0.1 mg/mL, day 2",0.0 ± 0.0 log PFU/mL
same,"Virus titre in apical wash, geometric mean ± SD","early intervention (days 0-7), 0.1 mg/mL, day 3",0.0 ± 0.0 log PFU/mL
same,"Virus titre in apical wash, geometric mean ± SD","early intervention (days 0-7), 0.1 mg/mL, day 4",0.0 ± 0.0 log PFU/mL
same,"Virus titre in apical wash, geometric mean ± SD","early intervention (days 0-7), 0.1 mg/mL, day 5",0.0 ± 0.0 log PFU/mL
same,"Virus titre in apical wash, geometric mean ± SD","early intervention (days 0-7), 0.1 mg/mL, day 6",0.0 ± 0.0 log PFU/mL
same,"Virus titre in apical wash, geometric mean ± SD","early intervention (days 0-7), 0.1 mg/mL, day 7",0.0 ± 0.0 log PFU/mL
same,Effect on RSV titre (in words),0.1 μg/mL over 7 days,complete inhibition
same,Effect on RSV titre (in words),apical well daily from day 0 to day 7,concentration dependent inhibition
same,Effect on virus titre (in words),early or late stage intervention,completely inhibited virus titre
same,"Virus titre in apical wash, geometric mean ± SD","late intervention (days 3-7), 0.02 mg/mL, day 0",0.0 ± 0.0 log PFU/mL
same,"Virus titre in apical wash, geometric mean ± SD","late intervention (days 3-7), 0.02 mg/mL, day 1",1.6 ± 1.1 log PFU/mL
same,"Virus titre in apical wash, geometric mean ± SD","late intervention (days 3-7), 0.02 mg/mL, day 2",3.9 ± 0.15 log PFU/mL
same,"Virus titre in apical wash, geometric mean ± SD","late intervention (days 3-7), 0.02 mg/mL, day 3",5.2 ± 0.04 log PFU/mL
same,"Virus titre in apical wash, geometric mean ± SD","late intervention (days 3-7), 0.02 mg/mL, day 4",3.8 ± 0.50 log PFU/mL
same,"Virus titre in apical wash, geometric mean ± SD","late intervention (days 3-7), 0.02 mg/mL, day 5",3.6 ± 0.13 log PFU/mL
same,"Virus titre in apical wash, geometric mean ± SD","late intervention (days 3-7), 0.02 mg/mL, day 6",0.0 ± 0.0 log PFU/mL
same,"Virus titre in apical wash, geometric mean ± SD","late intervention (days 3-7), 0.02 mg/mL, day 7",1.3 ± 0.94 log PFU/mL
same,"Virus titre in apical wash, geometric mean ± SD","late intervention (days 3-7), 0.1 mg/mL, day 0",0.0 ± 0.0 log PFU/mL
same,"Virus titre in apical wash, geometric mean ± SD","late intervention (days 3-7), 0.1 mg/mL, day 1",2.3 ± 0.35 log PFU/mL
same,"Virus titre in apical wash, geometric mean ± SD","late intervention (days 3-7), 0.1 mg/mL, day 2",4.1 ± 0.14 log PFU/mL
same,"Virus titre in apical wash, geometric mean ± SD","late intervention (days 3-7), 0.1 mg/mL, day 3",5.0 ± 0.14 log PFU/mL
same,"Virus titre in apical wash, geometric mean ± SD","late intervention (days 3-7), 0.1 mg/mL, day 4",3.8 ± 0.31 log PFU/mL
same,"Virus titre in apical wash, geometric mean ± SD","late intervention (days 3-7), 0.1 mg/mL, day 5",1.7 ± 1.2 log PFU/mL
same,"Virus titre in apical wash, geometric mean ± SD","late intervention (days 3-7), 0.1 mg/mL, day 6",0.0 ± 0.0 log PFU/mL
same,"Virus titre in apical wash, geometric mean ± SD","late intervention (days 3-7), 0.1 mg/mL, day 7",0.0 ± 0.0 log PFU/mL
same,Effect on virus titre (in words),"late intervention, administered from day 3, days 6 and 7 post infection",dramatic reduction of virus titre

# Source: patent US10189863B2, “5,6-dihydro-4H-benzo[b]thieno-[2,3-d]azepine derivatives” (PULMOCIDE LIMITED, priority 2014, dated 2019)
